Experimental data published in US20070066651A1, “Pyrazoline derivatives useful for the treatment of cancer” (LABORATORIOS DEL DR. ESTEVE S.A., priority 2004, published 2007).

Key:
human recombinant COX-2 = biological target: T1, human recombinant COX-2 (Homo sapiens, UniProt P35354); assay: Cyclooxygenase enzyme assay (TLC method), COX-2; format: biochemical; details: human recombinant COX-2, preincubation 90-120 min, [1-14C] arachidonic acid; read-out: IC50 COX-2, inhibition of cyclooxygenase activity
T1 construct: purchased Oxford Biomedical Research Inc
T1 sequence (P35354 18-604): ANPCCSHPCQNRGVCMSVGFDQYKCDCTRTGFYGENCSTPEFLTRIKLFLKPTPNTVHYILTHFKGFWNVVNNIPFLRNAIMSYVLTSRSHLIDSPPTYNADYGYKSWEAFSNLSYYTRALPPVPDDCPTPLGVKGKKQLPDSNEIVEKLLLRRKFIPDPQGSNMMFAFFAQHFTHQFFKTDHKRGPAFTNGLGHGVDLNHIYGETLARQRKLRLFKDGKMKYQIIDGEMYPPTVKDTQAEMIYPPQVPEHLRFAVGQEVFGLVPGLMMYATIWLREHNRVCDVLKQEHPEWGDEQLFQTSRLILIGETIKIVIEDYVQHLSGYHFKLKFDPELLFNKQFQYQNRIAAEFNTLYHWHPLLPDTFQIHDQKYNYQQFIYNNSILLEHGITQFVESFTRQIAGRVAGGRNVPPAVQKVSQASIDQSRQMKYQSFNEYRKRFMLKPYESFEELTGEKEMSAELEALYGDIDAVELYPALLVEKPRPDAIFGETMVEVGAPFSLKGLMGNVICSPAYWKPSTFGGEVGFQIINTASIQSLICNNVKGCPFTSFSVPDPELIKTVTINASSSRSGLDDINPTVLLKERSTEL
Description: The compounds of formula I are potent inhibitors of COX-2. […] The resulting radiolabeled prostanoid compounds, i.e., the products of COX-2 reaction with arachidonic acid, were quantified.
Cyclooxygenase activity of ovine COX-1 (Oxford Biomedical Research Inc.) and human recombinant COX-2 (Oxford Biomedical Research Inc.) was assayed by a thin layer chromatography (TLC) method as follows. All inhibitors were dissolved in dimethyl sulfoxide to a stock solution of 5 mM. Human recombinant COX-2 (3 units) or ovine COX-1 (15 units) was incubated with inhibitors at several concentrations in a solution containing 100 mM Tris-HCl, pH7.8, 500 μM phenol and hematin for 90 to 120 minutes at room temperature (24° C.). In controls, equal volumes of DMSO without drug were added to the incubation mixture. After incubation for 90-120 minutes, [1-^14C] arachidonic acid (50 μM, 51 mCi/mmol) (DuPont NEN) was added and incubated at 37° C. for 2 minutes. The reaction was terminated by extraction with 1 ml of ethyl acetate. The ethyl acetate layer was transferred into a fresh tube and evaporated to dryness in a Speedvac vacuum dryer. […] Radiolabeled prostanoid compounds (the products of COX enzymatic reaction with radiolabeled arachidonic acid substrate) were quantitated with a radioactivity scanner (Fuji, Phosphorimager). […]

ovine COX-1 = biological target: T2, ovine COX-1 (Ovis aries, UniProt P05979); assay: Cyclooxygenase enzyme assay (TLC method), COX-1; format: biochemical; details: ovine COX-1, preincubation 90-120 min, [1-14C] arachidonic acid; read-out: IC50 COX-1, inhibition of cyclooxygenase activity
T2 construct: purchased Oxford Biomedical Research Inc
T2 sequence (P05979 25-600): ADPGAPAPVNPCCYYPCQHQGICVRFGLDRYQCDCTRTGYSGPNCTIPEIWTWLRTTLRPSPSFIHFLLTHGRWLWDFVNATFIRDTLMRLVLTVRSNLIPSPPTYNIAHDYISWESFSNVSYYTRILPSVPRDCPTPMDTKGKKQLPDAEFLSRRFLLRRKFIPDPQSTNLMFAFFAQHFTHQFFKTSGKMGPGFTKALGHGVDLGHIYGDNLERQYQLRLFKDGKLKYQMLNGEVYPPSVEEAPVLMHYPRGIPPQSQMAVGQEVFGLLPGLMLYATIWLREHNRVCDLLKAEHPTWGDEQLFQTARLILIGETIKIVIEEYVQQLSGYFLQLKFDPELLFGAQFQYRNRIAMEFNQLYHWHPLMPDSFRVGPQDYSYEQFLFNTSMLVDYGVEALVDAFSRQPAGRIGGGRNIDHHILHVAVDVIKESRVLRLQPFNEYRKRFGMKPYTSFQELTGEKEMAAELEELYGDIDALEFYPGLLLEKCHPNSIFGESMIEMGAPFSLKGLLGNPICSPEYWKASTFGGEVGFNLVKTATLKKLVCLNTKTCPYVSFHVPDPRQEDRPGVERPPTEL
Description: Cyclooxygenase activity of ovine COX-1 (Oxford Biomedical Research Inc.) and human recombinant COX-2 (Oxford Biomedical Research Inc.) was assayed by a thin layer chromatography (TLC) method as follows. All inhibitors were dissolved in dimethyl sulfoxide to a stock solution of 5 mM. Human recombinant COX-2 (3 units) or ovine COX-1 (15 units) was incubated with inhibitors at several concentrations in a solution containing 100 mM Tris-HCl, pH7.8, 500 μM phenol and hematin for 90 to 120 minutes at room temperature (24° C.). In controls, equal volumes of DMSO without drug were added to the incubation mixture. After incubation for 90-120 minutes, [1-^14C] arachidonic acid (50 μM, 51 mCi/mmol) (DuPont NEN) was added and incubated at 37° C. for 2 minutes. The reaction was terminated by extraction with 1 ml of ethyl acetate. The ethyl acetate layer was transferred into a fresh tube and evaporated to dryness in a Speedvac vacuum dryer. The contents of the tubes were reconstituted in […] of ethyl acetate and spotted on a TLC plate (J. T. Baker, Phillipsburg, N.J.) and developed in a mobile phase containing chloroform/methanol (95:5) at 4° C. Radiolabeled prostanoid compounds (the products of COX enzymatic reaction with radiolabeled arachidonic acid substrate) were quantitated with a radioactivity scanner (Fuji, Phosphorimager). […]

DLD-1 cells = assay: Soft agar assay, colony growth of DLD-1 cells; format: cell-based, human; details: highest concentration tested (range 10 μM to 75 μM), one dose, stained after 20 days, versus untreated control cells
Description: The Example 1 and 24 compounds were compared to the COX-2 inhibitor celecoxib in inhibiting the growth of DLD-1 cells in soft agar. DLD-1 cells are human colorectal carcinoma cells that overexpress COX-2. DLD-1 cells grow in soft agar and form tumors in nude mice. The soft agar assay was performed as follows. A layer of bottom agar ([…]) was placed onto 60 mm^2 tissue culture dishes. The tumor cells were trypsinized from normal growth flasks while in exponential growth. The cells were counted by using a hemacytometer and 1.0×10^5 cells were placed into the top agar mixture containing growth medium, 4% noble agar and various concentrations of drugs. The concentration range was normally between 10 μM to 75 μM. The cells were not refed during the assay system; therefore, the cells were treated with one dose of the agents. The plates were stained 20 days later with a 0.05% (w/v) nitroblue tetrazolium solution (which stains only viable cells) for 48 hours. The results are shown in FIG. 1, the y-axis being the percent of cell colonies remaining in comparison to untreated control cells.

Row | SMILES | IC50 (human recombinant COX-2) [nM] | IC50 (ovine COX-1) [µM] | inhibition of DLD-1 cell colony growth in soft agar (DLD-1 cells) [%]
1 | NS(=O)(=O)c1ccc(N2N=C(C(F)(F)F)CC2c2ccccc2)cc1 (stereo not drawn) [Example 1, 1-(4-sulfamylphenyl)-3-trifluoromethyl-5-phenyl-2-pyrazoline] | 100 | > 100 | 100
2 | NS(=O)(=O)c1ccc(N2N=C(C(F)(F)F)CC2c2c[nH]c3ccccc23)cc1 (stereo not drawn) [Example 24, 1-(4-sulfamylphenyl)-3-trifluoromethyl-5-(3-indolyl)-2-pyrazoline] | 78 | > 100 | 100
